Results taken from publication PMC7586386, “Discovery of Covalent Inhibitors Targeting the Transcriptional Enhanced Associate Domain Central Pocket” (Journal of Medicinal Chemistry, 2020).
pIC50: −log10 of the molar value.

Key:
Ser mutant of mTEAD4 = target: T1, Ser mutant of mTEAD4 (Mus musculus, UniProt Q62296, C360S); test: Thiol conjugation assay with cysteine mutant; type: binding; conditions: 10 μM compound
T1 construct: His (N); made in house
Experimental: (§1) To serially diluted solutions of the tested compounds in 5 μL of assay buffer [HEPES (25 mM) and NaCl (150 mM) pH 6.5], freshly prepared 5 μL of 0.45 μM protein solution was added and incubated at room temperature for 10 min, followed by addition of 5 μL of 0.45 μM CPM solution, giving a 15 μL final assay volume, 150 nM protein, and 150 nM CPM. The assay plate was shaken at room temperature for 1 h before measuring the fluorescence (Ex/Em: 380/470 nm). Compound 19 was used as an internal standard to determine 100% inhibition.

Ala mutant of mTEAD4 = target: T2, Ala mutant of mTEAD4 (Mus musculus, UniProt Q62296, C360A); test: Thiol conjugation assay with cysteine mutant; type: binding; conditions: 10 μM compound
T2 construct: N-terminal His6- and MBP-tagged mTEAD4^209–427 with Cys360Ala mutation; made in house; host or cells: E. coli BL21-CodonPlus (DE3)-RIPL
T2 sequence (Q62296 209-427 C360A): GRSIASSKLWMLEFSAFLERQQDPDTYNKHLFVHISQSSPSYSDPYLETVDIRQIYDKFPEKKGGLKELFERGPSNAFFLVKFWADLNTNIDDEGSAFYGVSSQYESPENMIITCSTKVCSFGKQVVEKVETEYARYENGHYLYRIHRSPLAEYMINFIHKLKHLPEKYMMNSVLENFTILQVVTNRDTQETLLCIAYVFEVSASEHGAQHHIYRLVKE
Experimental: as §1

hTEAD4 (nonacylated) [1] = target: T3, hTEAD4 (nonacylated) (Homo sapiens, UniProt Q15561); test: Differential scanning fluorimetry; type: binding; conditions: 20 μM protein, 80 μM inhibitor; value is a decrease
T3 construct: N-terminal His6-tagged hTEAD4^217–434 was subcloned; made in house; host or cells: Escherichia coli BL21-CodonPlus (DE3)-RIPL
T3 sequence (Q15561 217-434): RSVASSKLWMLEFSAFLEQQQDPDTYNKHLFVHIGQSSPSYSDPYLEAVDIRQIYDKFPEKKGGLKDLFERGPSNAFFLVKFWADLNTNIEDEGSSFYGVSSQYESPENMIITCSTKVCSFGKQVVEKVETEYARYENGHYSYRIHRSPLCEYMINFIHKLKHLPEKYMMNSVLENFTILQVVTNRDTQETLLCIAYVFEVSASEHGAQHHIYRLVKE
Experimental: Nonacylated hTEAD4 (20 μM) was incubated in the absence or presence of inhibitors (80 μM) at 25 °C for 10 min. Then, SYPRO orange (Sigma-Aldrich) at a final concentration of 5× was added and the mixture was heated at a ramp rate of 1 °C/min in a qPCR machine (Applied Biosystems). The derivative of the SYPRO orange fluorescent intensity is plotted as a function of temperature.

hTEAD4 (acylated) = target: T4, hTEAD4 (acylated) (Homo sapiens, UniProt Q15561); test: Whole-protein ESI–MS of covalent modification; type: binding; conditions: hTEAD4 not treated with hydroxylamine
T4 construct: N-terminal His6-tagged hTEAD4^217–434 was subcloned; made in house; host or cells: Escherichia coli BL21-CodonPlus (DE3)-RIPL
T4 sequence (Q15561 217-434): as above
Experimental: (§2) The protein solution (1 μL 5 μM) was injected to UPLC-MS (ThermoScientific_UltiMate 3000 LC coupled to a Velos Pro MS) through a desalting column (MassPREP Online desalting, 2.1 × 10 mm). For reactions, 1 μM of the protein was incubated at room temperature for 1 h with 8 equiv of the compound in HEPES (25 mM) and NaCl (150 mM) pH 6.5 buffer. Then, the mixture was centrifuged before injecting 5 μL. The deconvolution of m/z values was performed using Promass Xcalibur software.

hTEAD4 (nonacylated) [2] = target: T3, hTEAD4 (nonacylated); test: Whole-protein ESI–MS of covalent modification; type: binding; conditions: 8 equiv of compound, 1 h, rt
Experimental: as §2

hTEAD4 (nonacylated) [3] = target: T3, hTEAD4 (nonacylated); test: Time-dependent inhibition, thiol conjugation assay; type: binding
Experimental: as §1
TDI of hTEAD4 (nonacylated) by compound 19 was monitored in FP (central pocket binding) and thiol conjugation assays at 5–7 different concentrations (0.15–40 μM) following 1, 2, 4, and 24 h incubation at 4 °C (mean ± SD; n = 2). By fitting the percent of inhibition versus preincubation time at different concentrations, kobs was calculated. Next, kobs was plotted against concentration and was further fitted to a nonlinear regression model to determine the kinetic parameters of covalent inhibition of hTEAD4, where plateau is showing kinact (min^–1) and t1/2 is Ki (μM).

hTEAD2 = target: T5, hTEAD2 (Homo sapiens, UniProt Q15562); test: Thiol conjugation assay, TEAD homologues; type: binding; conditions: read-out: TEAD2 IC50
T5 construct: N-terminal His6-tagged hTEAD4^217–447 was subcloned; His6 (N); made in house; host or cells: E. coli (as described for N-His hTEAD4)
T5 sequence (Q15562 217-447): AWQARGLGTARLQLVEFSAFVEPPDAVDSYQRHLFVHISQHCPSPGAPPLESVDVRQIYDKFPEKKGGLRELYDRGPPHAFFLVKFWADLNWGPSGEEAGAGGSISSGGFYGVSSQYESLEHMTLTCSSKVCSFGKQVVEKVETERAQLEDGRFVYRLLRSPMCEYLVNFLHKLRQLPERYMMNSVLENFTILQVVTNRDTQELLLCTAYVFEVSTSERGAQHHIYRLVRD
Experimental: as §1

hTEAD3 = target: T6, hTEAD3 (Homo sapiens, UniProt Q99594); test: Thiol conjugation assay, TEAD homologues; type: binding; conditions: read-out: TEAD3 IC50
T6 construct: N-terminal His6-tagged hTEAD4^216–434 was expressed; His6 (N); made in house
T6 sequence (Q99594 216-434): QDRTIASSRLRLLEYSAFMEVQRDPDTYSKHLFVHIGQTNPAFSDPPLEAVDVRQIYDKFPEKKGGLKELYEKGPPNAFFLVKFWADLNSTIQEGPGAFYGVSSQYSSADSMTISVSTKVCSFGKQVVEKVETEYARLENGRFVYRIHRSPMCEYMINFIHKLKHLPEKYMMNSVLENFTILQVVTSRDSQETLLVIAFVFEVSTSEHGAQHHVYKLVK
Experimental: as §1

[4] = Assay media stability (HPLC); type: physicochemical
Experimental: The compounds were incubated in MES (25 mM), pH 6.5 buffer or HEPES (25 mM) and NaCl (150 mM) pH 6.5 buffer for an hour at room temperature before injecting into a reverse-phase HPLC system (ThermoScientific_Ultimate 3000) equipped with a C18 column (2/50 Nucleodur C18 gravity 1.8 μm von Macherey-Nagel).

T1 sequence (Q62296 whole entry C360S): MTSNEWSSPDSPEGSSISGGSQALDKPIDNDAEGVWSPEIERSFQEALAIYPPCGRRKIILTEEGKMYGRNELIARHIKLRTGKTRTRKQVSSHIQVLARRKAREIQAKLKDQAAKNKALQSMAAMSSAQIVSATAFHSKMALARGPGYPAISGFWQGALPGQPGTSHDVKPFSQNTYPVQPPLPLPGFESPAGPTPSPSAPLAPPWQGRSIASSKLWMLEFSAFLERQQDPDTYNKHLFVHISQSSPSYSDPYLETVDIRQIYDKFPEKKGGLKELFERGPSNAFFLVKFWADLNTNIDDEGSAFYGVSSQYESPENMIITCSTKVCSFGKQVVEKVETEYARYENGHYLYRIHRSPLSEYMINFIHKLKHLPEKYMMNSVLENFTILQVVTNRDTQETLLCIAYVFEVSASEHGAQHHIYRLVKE

- inhibition of the increase in fluorescence signal (Ser mutant of mTEAD4): cannot inhibit
- inhibition of the increase in fluorescence signal (Ala mutant of mTEAD4): cannot inhibit
- lowering of the melting point (Tm) (hTEAD4 (nonacylated) [1]): 5 °C
- kinact (hTEAD4 (nonacylated) [3]; supplementary CSV): 0.000333 s⁻¹
- kinact/KI (hTEAD4 (nonacylated) [3]; thiol conjugation assay): 138 M⁻¹ s⁻¹
- pIC50 (hTEAD2): 5.16
- pIC50 (hTEAD3): 5.34
- stability in assay medium ([4]; MES buffer, pH 6.5, 1 h, rt): stable
SMILES: O=c1cc(CO)oc(C(Nc2ccccc2)c2ccccc2)c1O (centres unmarked) [Compound 19, 3-Hydroxy-6-(hydroxymethyl)-2-(phenyl(phenylamino)methyl)-4H-pyran-4-one]
- adduct formation with acylated protein (whole-protein ESI–MS) (hTEAD4 (acylated)): did not result in the formation of an acylated hTEAD4-19 adduct
- modification of the protein (whole-protein ESI–MS) (hTEAD4 (nonacylated) [2]): modification of the protein (+230 Da) was observed
- stability in assay medium ([4]; HEPES buffer (pH 6.5), 1 h): appearance of two small peaks was detected
